Series [1] can be described thus: 9-month stability of dried cannabis drug stored in a vault (not under nitrogen). Type of series: physicochemical. Particulars: for % Change from Day 0: 9-month storage, <0.05 assumed to be 0.05 for calculation; for Analyte content, Aug. 10, 2017 / Analyte content, Nov. 17, 2016: dried cannabis drug stored in a vault, not under nitrogen; for Analyte content, Aug. 10, 2017: 9 months; for Analyte content, Nov. 17, 2016: Day 0. On the set-up: Analyte content, Nov. 17, 2016: unit not given beside the values. The text has this: A schematic depicting the production of exemplary cannabinoic acids and subsequent transformation to the related neutral form by conditions such as oxidation, heat and time is shown in FIG. 3.

For series [2] the following is noted: cited from earlier work; for log P (octanol/water partition coefficient): United Nations Office on Drugs and Crime, 2009.
Series [3] in a line: Dose uniformity of pellets. Type of series: physicochemical. From the text: The dose uniformity studies show improvement subsequent to optimization of the blending process. […] After optimizing the process, the dose uniformity for clinical batches was 5.59% and 5.13% for THC and THCA, respectively.
Where [4] appears, read: Phase 1 clinical batch, before optimization of blending.
[5] abbreviates: clinical batches after optimizing the process.

Marks after values point to notes of the source that are not given here.

`C=C(C)[C@@H]1CCC(C)=C[C@H]1c1c(O)cc(CCCCC)cc1O` [CBD, cannabidiol, reference compound]: in series [1], the “% Change from Day 0” value is 1260%; the “Analyte content, Aug. 10, 2017” value came to 0.68; the “Analyte content, Nov. 17, 2016” value is listed as <0.05*. Moreover, in series [2], the “log P (octanol/water partition coefficient)” value is 5.79, the Solubility in ethanol entry was “soluble in ethanol” and the Solubility in water entry is “not soluble in water”.

For the molecule `C=C(C)[C@@H]1CCC(C)=C[C@H]1c1c(O)cc(CCCCC)c(C(=O)O)c1O` [CBDA, cannabidiolic acid], in series [1], the “% Change from Day 0” value is 33.9%; the “Analyte content, Aug. 10, 2017” value came out at 2.03; the “Analyte content, Nov. 17, 2016” value is reported as 3.07.

As for `CCCCCc1cc(O)c(C/C=C(\C)CCC=C(C)C)c(O)c1` [CBG, cannabigerol], in series [1], the “% Change from Day 0” value is on record as 140%; the “Analyte content, Aug. 10, 2017” value was determined as 0.12; the “Analyte content, Nov. 17, 2016” value is reported as <0.05*.

Turning to `CCCCCc1cc(O)c(C/C=C(\C)CCC=C(C)C)c(O)c1C(=O)O` [CBGA, cannabigerolic acid], in series [1], the “Analyte content, Aug. 10, 2017” value is 0.26 and the “Analyte content, Nov. 17, 2016” value came to 0.37.

Consider `CCCCCc1cc(O)c2c(c1)OC(C)(C)[C@@H]1CCC(C)=C[C@@H]21` [THC, tetrahydrocannabinol, reference compound], for which, in series [1], the “% Change from Day 0” value is recorded as 733%; the “Analyte content, Aug. 10, 2017” value worked out at 1.75; the “Analyte content, Nov. 17, 2016” value was determined as 0.21. The “Dose uniformity, % variability” value in series [3] (setting [4]) came to 12.82%. Besides, the “Dose uniformity, % variability” value in series [3] (setting [5]) was determined as 5.59%. Further, the “log P (octanol/water partition coefficient)” value in series [2] is reported as 6.99. Further, the Stability entry in series [2] (pure THC, Mechoulam 1970, NIH 1996) is “unstable in air, light, and at high temperatures”.

For the molecule `CCCCCc1cc2c(c(O)c1C(=O)O)[C@@H]1C=C(C)CC[C@H]1C(C)(C)O2` [THCA, tetrahydrocannabinolic acid], in series [1], the “Analyte content, Aug. 10, 2017” value was found to be 6.02 and the “Analyte content, Nov. 17, 2016” value was determined as 9.68. In addition, the “Dose uniformity, % variability” value in series [3] (setting [4]) was 15.07%. In series [3] (setting [5]), the “Dose uniformity, % variability” value came to 5.13%.
